Experimental data as given in patent US20110118337A1, “Method of Using Compositions Comprising MIR-192 and/or MIR-215 for the Treatment of Cancer” (Merck Sharp & Dohme Corp., priority 2008, published 2011).

Columns and labels:
[1] = tested on: HCT116DICER^ex5 cells; assay: Phospho-histone H3 immunostaining, flow cytometry (M-phase), nocodazole-treated; type: cell-based, human; conditions: phospho-histone-H3 positive, 10 nM duplex
Method: At 48 hours post transfection, cells were left untreated, treated with nocodazole (100 ng/mL, Sigma-Aldrich), or treated with aphidicolin (2 μg/mL, Sigma-Aldrich) for an additional 18 hours before harvesting. The cells were then trypsinized, collected, fixed and stained with a propidium iodide solution. BrdU-labeling was performed according to the manufacturer's instructions (BD-Pharmigen). For phospho-histone H3 analysis, cells were fixed and permeabilized with IPF buffer (100 mM PIPES pH 6.8, 10 mM EDTA, 1 mM MgCl2, 0.2% Triton X-100, 4% formaldehyde) and stained with propidium iodide and anti-phospho-histone H3 antibody conjugated to Alexa-488 (Cell Signaling Technology). The cells were analyzed using a FACSCalibur flow cytometer (Beacton Dickinson) and FlowJo software (Tree Star, Inc.).
Nocodazole-treated mock transfected and miR-192 transfected cells were also permeabilized, immunostained for phospho-histone-H3 (a mitotic marker) and sorted for DNA content and the respective accumulation of positively stained cells in the mitotic compartment was quantified. It was determined that the percentage of cells in M-phase in the mock transfected population was 40.9%, whereas the percentage of cells in M-phase in the miR-192 transfected population was 4.9%.

[2] = tested on: HCT116DICER^ex5 cells; assay: Cell cycle FACS screen of pools of three siRNAs per gene (G1 after nocodazole, G2/M after aphidicolin); type: cell-based, human; conditions: pools of 3 siRNAs/gene at 100 nM final, FACS 66 hours post-transfection, average of two experiments
Description: To identify targets whose modulation influences the cell cycle arrest phenotype observed with miR-192 expression, the 62 candidate genes identified as described in Example 2 and shown in TABLE 3 were silenced individually by transfecting a pool of 3 gene-specific siRNA duplexes per gene (each directed to a different region of the gene) into HCT116DICER^ex5 cells. The siRNA duplex sequences (3 duplexes per gene) used to target each of the 62 genes are shown below in TABLE 5. The siRNA duplex oligonucleotides were obtained from Sigma-Genesys, as described in Linsley, P. S. et al., Mol Cell Biol 27:2240-2252 (2007).
HCT116DICER^ex5 cells were transiently transfected with pools of three different siRNA duplexes per gene at a 100 nM final concentration using Lipofectamine RNAiMax (Invitrogen), according to the manufacturer's instructions. At 48 hours post transfection, cells were left untreated, treated with nocodazole (100 ng/mL, Sigma-Aldrich), or treated with aphidicolin (2 μg/mL, Sigma-Aldrich) for an additional 18 hours before harvesting. The cells transfected with the siRNA pools were then screened by FACS analysis as described in Example 3 for the percentage of cells arrested in G1 or G2/M as compared to the negative siRNA luciferase control.
The siRNA pools tested in this screen were ranked according to the percentage of cells arrested in G1 or G2/M following transfection, as compared with a negative control siRNA targeting luciferase. To avoid being misled by possible RNAi off-target effects, the siRNA pools were deconvoluted to identify genes for which at least 2 different siRNA duplexes from the pool caused the cell cycle arrest phenotype (data not shown).
TABLE 6 summarizes the data obtained 66 hours post-transfection by FACS analysis showing the cell cycle distribution of the HCT116DICER^ex5 cells transfected with siRNA pools of 3 siRNAs/gene. Each pool was analyzed in two separate experiments, and the average percentage of the cells trapped in G1 (following nocodazole treatment), or G2/M (following aphidicolin treatment) are shown in TABLE 6.

[3] = tested on: 18 candidate downstream targets of miR-192/miR-215 in U-2-OS cells; assay: Transcript abundance of target genes by quantitative PCR (Taqman); type: cell-based; conditions: 10 nM, 10 hours following transfection, relative to luciferase siRNA or miR-192 seed region mutant
Method: To further confirm that the candidate genes shown in TABLE 7 and TABLE 8 are direct downstream targets of miR-192/miR-215, miR-192 siRNA (10 nM) synthetic duplexes, miR-192 mutant (10 nM) or 10 nM siRNA against luciferase were transfected into the cell line U-2-OS, an osteosarcoma cell line that has wild-type DICER function and a relatively low endogenous level of miR-192/miR-215.
RNA was isolated at 10 hours post-transfection and transcript abundance of the target genes shown in TABLE 7 and TABLE 8 was measured by quantitative PCR. Transcript abundance was measured by Taqman gene expression assay (Applied Biosystems) using hGUS as an internal control. Levels of transcripts were quantified using an ABI Prism 7900HT sequence detection system.

[4] = tested on: 3′ UTRs of the 18 candidate genes in U-2-OS cells; assay: 3′ UTR luciferase reporter analysis; type: cell-based; conditions: 10 nM, 24 hours post-transfection
Description: In order to test whether miR-192 is regulating these genes through seed sequence-specific recognition of binding sites within their 3' UTRs, a series of reporter constructs were generated containing the entire natural 3' UTRs of the 18 candidate genes (BCL2, CDC7, CUL5, DLG5, DTL, ERCC3, HOXA10, HRH1, LMNB2, MAD2L1, MCM10, MIS12, MPHOSPH1, PIM1, PRPF38A, […]1, SEPT10 and SMARCB1) inserted downstream of a luciferase open reading frame (SwitchGear Genomics) to create 3' UTR luciferase reporter plasmids. U-2-OS cells were transfected first with 10 nM miR-192 or 10 nM miR-192 mutant, and subsequently transfected 4 to 6 hours later with these 3' UTR reporter plasmids. A renilla luciferase expression plasmid from dual luciferase system (Promega) was used as an internal control. Luciferase activity was measured at 24 hours post-transfection, and quantified relative to renilla luciferase activity.

[5] = tested on: CDC7, LMNB2, MAD2L1 and CUL5; assay: Western blot analysis; type: cell-based, human; conditions: HCT116DICER^ex5 cells, 10 nM, data not shown
Method: HCT116DICER^ex5 cells were transfected with 10 nM siRNA against luciferase or 10 nM miR-192 or 10 nM miR-192 mutant, and lysates were prepared at 28 hours or 48 hours post-transfection. For immunoblotting, 30 μg of whole cell lysate extracted in a modified RIPA buffer (150 mM NaCl, 50 mM Tris pH 7.4, 1 mM EDTA, 1% NP-40, 0.1% SDS) was used per sample. CDC7, LMNB2, MAD2L1 and CUL5 were detected by Western blot using anti-CDC7 (sc-56275, Santa Cruz Biotechnology Inc.), anti-LMNB2 (MAB3536, Millipore), anti-MAD2L1 (ab55452, Abcam) and anti-CUL5 (Invitrogen) antibodies, and protein levels were compared to the level of β-actin expression as detected by an anti-β-actin antibody (Abcam).

In the case of “miR-192: Synthetic duplex mimetic of miR-192, guide CUGACCUAUGAAUUGACAGCC (SEQ ID NO:1), passenger SEQ ID NO:7 (sense CUGUCAAUUCAUCGGUCUGAU; listed as RNA, chemistry not given here; listed as Homo sapiens)”, the “percentage of cells in M-phase” value [1] is reported as 4.9%, the “% G2 (Avg), Aphidicholin+” value ([2]; aphidicolin 2 μg/mL 18 h) is reported as 54.9% and the “% G1 (Avg), Nocodazole+” value ([2]; nocodazole 100 ng/mL 18 h) is reported as 43.6%. The “candidate gene transcript levels” value [3] was “decrease”, the “regulation of 3′ UTR luciferase reporters of the 18 genes” value [4] was “regulated” and the protein level [5] was “downregulated”.
